Results published in paper PMC10396955, “2-Oxabicyclo[2.1.1]hexanes as saturated bioisosteres of the ortho-substituted phenyl ring” (Nature Chemistry, 2023).
≈ marks a conversion by molar mass, not a printed value. Like-named read-outs stand apart in the source and are kept apart here.

Assays:
human liver microsomes = experiment: Metabolic stability in human liver microsomes; assay type: in vitro ADME
Method: (§1) The data acquisition and system control was performed using Analyst 1.6.3 software from AB Sciex. Methods Microsomal incubations were carried out in 96-well plates in 5 aliquots of 30 μL each (one for each time point). […] In the control reactions the NADPH-cofactor system was substituted with phosphate buffer. […] Each reaction was performed in duplicates. Five time points over 40 minutes were analyzed. The reactions were stopped by adding 4 volumes of methanol containing internal standard to incubation aliquots, followed by protein sedimentation by centrifuging at 5500 rpm for 4 minutes. […]. Supernatants were analyzed using the HPLC system coupled with tandem mass spectrometer. […] In some cases, the last time point is excluded from the calculations to ensure acceptable logarithmic linearity of decay.

[1] = Metabolic stability in human liver microsomes; assay type: in vitro ADME; conditions: both sexes; for half-life at 2 µM: read-out: t1/2; for k el at 2 µM: elimination constant, read-out: kel (converted)
Method: as §1

[2] = Kinetic solubility in phosphate-buffered saline, pH 7.4; assay type: physicochemical; conditions: phosphate-buffered saline, 25 °C, pH 7.4, aqueous buffer, kinetic from dmso stock
Method: Analysis of Aqueous Solubility […]
compound (Ondansetron) were assessed for kinetic solubility in phosphate-buffered saline, pH […]
Phosphate buffered saline, pH 7.4 (Sigma-Aldrich, USA; Cat #P3813) […]
MultiScreen HTS 96 Well Filter Plates (Millipore, Ireland; Cat # MSGVS2210) […]
Matrix Multichannel Electronic Pipette 2-125 µL, 5-250 µL, 15-1250 µL (Thermo Scientific, […]
Vacuum pump (Millipore, USA; Model # XX5500000)
The measurements were performed using SpectraMax Plus reader in UV-Vis mode. Acquisition and analysis of the data were performed using SoftMax Pro v.5.4 (Molecular Devices) and Excel […]
Kinetic solubility assay was performed according to the Enamine’s aqueous solubility SOP.
Briefly, using a 20 mM stock solution of the compound in 100% DMSO dilutions were prepared to a theoretical concentration of 400 μM in duplicates in phosphate-buffered saline pH 7.4 […]
for two hours and then filtered through HTS filter plates using a vacuum manifold. The filtrates of test compounds were diluted 2-fold with acetonitrile with 2% DMSO before measuring.
In parallel, compound dilutions in acetonitrile/PBS (1:1) were prepared to theoretical […]
DMSO to generate calibration curves. Ondansetron was used as reference compound to control proper assay performance. 200 μl of each sample was transferred to 96-well plate and measured in 200-550 nm range with 5 nm step.
The concentrations of compounds in PBS filtrate are calculated using a dedicated Microsoft Excel calculation script. Proper absorbance wavelengths for calculations are selected for each compound manually based on absorbance maximums (absolute absorbance unit values for the minimum and maximum concentration points within 0 – 3 OD range). Each of the final datasets is additionally visually evaluated by the operator and goodness of fit (R2) is calculated for each calibration curve. The effective range of this assay is approximately 2-400 μM and the […]

physchem = assay type: physicochemical; conditions: for D (partition ratio), incubation 1 / D (partition ratio), incubation 2 / D (partition ratio), incubation 3: Table S2, n-octanol/PBS pH 7.4
Method: Determination of Distribution Coefficient (LogD, pH 7.4) […]
n-octanol – phosphate buffered saline (PBS), pH 7.4. Distribution coefficient (or LogD) is a […]
Phosphate buffered saline, tablet (Sigma-Aldrich, USA; Cat # P4417)
Acetic acid (Enamine, Ukraine.)
DMSO stock solutions of the test compounds 10mM
Gradient HPLC system (Shimadzu, Japan)
MTR22 Multi Mix Rotator (UNICO, USA)
Laboratory Centrifuge, Sigma 4-15C, Qiagen (SIGMA GmbH, Germany) […]
allowed to mix in a rotator for 1 h at 30 rpm. Phase separation was assured by centrifugation for […]
dilution. The samples (both phases) were analyzed using a HPLC system coupled with a tandem mass spectrometer. Mebendazole was used as a reference compound. […]
where: SO – peak area of the analyte in octanol phase
S P – peak area of the analyte in PBS buffer do – dilution coefficient for octanol phase dp – dilution coefficient for aqueous phase

[3] = Chemical stability of carboxylic acids (acid, base, storage); assay type: physicochemical; conditions: room temperature, one day
From the text: We also checked the chemical stability of three representative carboxylic acids, 1b, 19b and 22b (Table 2), because we suspected that some of them could decompose via a retro-Michael-type reaction. […] All products were crystalline solids, and we stored all of them in closed vials at room temperature on the shelf.

[4] = human, liver microsomes, pH 7.4, human liver microsomes, 2 μM, 37 °C, with NADPH, 7 min
[5] = human, liver microsomes, pH 7.4, human liver microsomes, 2 μM, 37 °C, with NADPH, 15 min
[6] = human, liver microsomes, pH 7.4, human liver microsomes, 2 μM, 37 °C, with NADPH, read-out: % Remaining, Mean of 2
[7] = human, liver microsomes, pH 7.4, human liver microsomes, 0.42 mg protein per ml, Table S3, * approximate due to high stability, read-out: Clint
[8] = human, liver microsomes, pH 7.4, human liver microsomes, * approximate due to high stability
[9] = pH 7.4, human liver microsomes, no NADPH cofactor, ** instability partially or completely not determined by CYP450 activity, read-out: % Remaining without cofactor, Mean of 2
[10] = pH 7.4, human liver microsomes, * approximate due to high stability
[11] = Table S1, incubation 1, read-out: PBS solubility, pH 7.4, Incubation 1
[12] = Table S1, incubation 2, read-out: PBS solubility, pH 7.4, Incubation 2
[13] = Table S1, mean of 2 incubations, 2 h, 2% DMSO, effective range approx. 2-400 μM, read-out: PBS solubility, pH 7.4, Mean
[14] = pH 7.4, LogD, pH 7.4, incubation 1
[15] = pH 7.4, LogD, pH 7.4, incubation 2
[16] = pH 7.4, LogD, pH 7.4, incubation 3
[17] = experimental kinetic solubility in phosphate-buffered saline at pH 7.4, Fig. 3, read-out: Solubility
[18] = human, liver microsomes, pH 7.4, human liver microsomes, Fig. 3, read-out: CIint, intrinsic clearance

Row | SMILES | remaining at […], 2 µM [1, 4] [%] | remaining at […], 2 µM [1, 5] [%] | remaining at 25 min, 2 µM [1, 6] [%] | remaining at 40 min, 2 µM [1, 6] [%] | microsomal CLint at 2 µM [1, 7] [µL/min/mg] | half-life at 2 µM [1, 8] [min] | remaining at 40 min, 2 µM [1, 9] [%] | k el at 2 µM [1, 10] [s⁻¹] | solubility at 2 h [2, 11] [µM] | solubility at 2 h [2, 12] [µM] | solubility at 2 h [2, 13] [µM] | D (partition ratio), incubation 1 (physchem) | D (partition ratio), incubation 2 (physchem) | D (partition ratio), incubation 3 (physchem) | logD at 1 h (physchem; pH 7.4, LogD, pH 7.4 (mean)) | logD at 1 h (physchem; [14]) | logD at 1 h (physchem; [15]) | logD at 1 h (physchem; [16]) | logD at 1 h (physchem; pH 7.4, logD (7.4)) | solubility at 2 h [2, 17] [µM] | further results
1 | O=C(NC1CCN(CCCCC2(C(=O)NCC(F)(F)F)c3ccccc3-c3ccccc32)CC1)[C@@H]1[C@H]2C[C@]1(c1ccc(C(F)(F)F)cc1)CO2 (relative stereo) [Compound 35] | 102 | 77 | 36 | 29 | 87 | 19.2 | 84 | 0.0006 | 2 (≈ 1.4 µg/mL) | 4 (≈ 2.8 µg/mL) | 3 (≈ 2.1 µg/mL) | 1.46E+05 | 1.62E+05 | 8.88E+04 | > 4.5 | > 4.5 | > 4.5 | > 4.5 | > 4.5 | – | CIint, intrinsic clearance (human liver microsomes; human liver microsomes): 87 µL/min/mg
2 | O=C(O)[C@@H]1[C@@H]2CC[C@@]1(C(=O)Nc1ccc(S(=O)(=O)Nc3nccs3)cc1)C2 (relative stereo) [Compound 32] | 97 | 97 | 99 | 100 | – | – | 89 | – | 151 (≈ 61.5 µg/mL) | 164 (≈ 66.8 µg/mL) | 158 (≈ 64.4 µg/mL) | 8.13E-02 | 3.23E-02 | 2.75E-02 | < 1 | < 1 | < 1 | < 1 | < 1 | 101 (≈ 41.2 µg/mL) | metabolic stability (in words) (human liver microsomes; human liver microsomes): metabolically stable
3 | O=C(O)C1C2CC1(C(=O)Nc1ccc(S(=O)(=O)Nc3nccs3)cc1)CO2 (centres unmarked) [Compound 33] | 111 | 111 | 109 | 106 | ~1 | ~1190 | 92 | – | 100 (≈ 40.9 µg/mL) | 102 (≈ 41.8 µg/mL) | 101 (≈ 41.4 µg/mL) | 2.39E-01 | 1.93E-02 | 5.50E-01 | -0.87 | -0.62 | -1.72 | -0.26 | < 1 | 158 (≈ 64.7 µg/mL) | metabolic stability (in words) (human liver microsomes; human liver microsomes): metabolically stable; microsomal CLint at 2 µM [1, 18]: 1 µL/min/mg
4 | O=C(NC1CCN(CCCCC2(C(=O)NCC(F)(F)F)c3ccccc3-c3ccccc32)CC1)c1ccccc1-c1ccc(C(F)(F)F)cc1 [Lomitapide, reference compound] | 97 | 89 | 49 | 46 | 55 | 30.4 | 88 | 0.000383 | 3 (≈ 2.08 µg/mL) | 3 (≈ 2.08 µg/mL) | 3 (≈ 2.08 µg/mL) | 5.98E+08 | 3.42E+05 | 6.79E+04 | > 4.5 | > 4.5 | > 4.5 | > 4.5 | > 4.5 | 3 ± 0.1 (≈ 2.08 µg/mL) | CIint, intrinsic clearance (human liver microsomes; human liver microsomes): 55 µL/min/mg
5 | COC(=O)Nc1nc2ccc(C(=O)c3ccccc3)cc2[nH]1 [Mebendazole, reference compound] | – | – | – | – | – | – | – | – | – | – | – | 1.27E+03 | 1.32E+03 | 1.33E+03 | 3.12 | 3.1 | 3.12 | 3.12 | – | – | –
6 | O=C(O)C1C2CC1(c1ccccc1)CO2 (centres unmarked) [Compound 1b] | – | – | – | – | – | – | – | – | – | – | – | – | – | – | – | – | – | – | – | – | chemical stability ([3]; aqueous 1 M hydrochloric acid): did not lead to any decomposition; chemical stability ([3]; aqueous 1 M sodium hydroxide): did not lead to any decomposition
7 | O=C(O)Cc1ccccc1Nc1c(Cl)cccc1Cl [Diclofenac, reference compound] | – | – | – | – | – | – | – | – | – | – | – | – | – | – | – | – | – | – | – | – | kel (human liver microsomes; both, human, 2 µM, pH 7.4): 0.115 min⁻¹; Clint (human liver microsomes; both, human, microsomes, 2 µM, pH 7.4): 276 µL/min/mg; % Remaining, Mean of 2 (human liver microsomes; both, human, microsomes, 25 min, 2 µM, pH 7.4): 8%
8 | O=C(O)c1ccccc1C(=O)Nc1ccc(S(=O)(=O)Nc2nccs2)cc1 [Phthalylsulfathiazole, reference compound] | 97 | 101 | 101 | 96 | ~2 | ~960 | 124 | ~1.67e-05 | 169 (≈ 68.2 µg/mL) | 171 (≈ 69 µg/mL) | – | 2.09E-01 | 8.99E-02 | 4.17E-02 | -1.04 | -0.68 | -1.05 | -1.38 | < 1 | 170 (≈ 68.6 µg/mL) | metabolic stability (in words) (human liver microsomes; human, microsomes): metabolically stable; microsomal CLint at 2 µM [1, 18]: 2 µL/min/mg
9 | O=C(NC1CCN(CCCCC2(C(=O)NCC(F)(F)F)c3ccccc3-c3ccccc32)CC1)[C@@H]1[C@@H]2CC[C@@]1(c1ccc(C(F)(F)F)cc1)C2 (relative stereo) [Compound 34] | 76 | 41 | 21 | 8 | 157 | 10.6 | 91 | 0.00108 | 2 (≈ 1.4 µg/mL) | 2 (≈ 1.4 µg/mL) | 2 (≈ 1.4 µg/mL) | 3.53E+08 | 3.40E+06 | 1.71E+05 | > 4.5 | > 4.5 | > 4.5 | > 4.5 | > 4.5 | 2 ± 0.2 (≈ 1.4 µg/mL) | CIint, intrinsic clearance (human liver microsomes; human liver microsomes): 157 µL/min/mg
